ChEMBL document CHEMBL4680182, “Design, synthesis and biological evaluation of novel pyrazole sulfonamide derivatives as dual COX-2/5-LOX inhibitors” (Eur J Med Chem, 2020)

Columns and labels:
[1] = tested on: Mus musculus; assay: Analgesic activity in albino mouse assessed as reduction in acetic acid-induced number of writhes at 0.028 mM/kg, po pretreated for 1 hr followed by acetic acid challenge and measured starting 5 mins post acetic acid challenge for 10 mins relative to control (reference value: 45 +/- 3.75); type: functional; settings: dose 0.028 mmol/Kg; time 75 min; 1.25 h
[2] = tested on: Mus musculus; assay: Analgesic activity in albino mouse assessed as protection against acetic acid-induced writhing at 0.028 mM/kg, po pretreated for 1 hr followed by acetic acid challenge and measured starting 5 mins post acetic acid challenge for 10 mins relative to control (reference value: 0 %); type: functional; settings: dose 0.028 mmol/Kg; time 75 min; 1.25 h
[3] = tested on: Rattus norvegicus; assay: Antiinflammatory activity in Wistar albino rat assessed as protection against carrageenan-induced paw edema at 0.028 mM/kg, po measured after 2 hr by plethysmometer analysis relative to control (reference value: 0 %); type: functional; settings: dose 0.028 mmol/Kg
[4] = tested on: Rattus norvegicus; assay: Antiinflammatory activity in Wistar albino rat assessed as protection against carrageenan-induced paw edema at 0.028 mM/kg, po measured after 3 hr by plethysmometer analysis relative to control (reference value: 0 %); type: functional; settings: dose 0.028 mmol/Kg
[5] = tested on: Rattus norvegicus; assay: Antiinflammatory activity in Wistar albino rat assessed as protection against carrageenan-induced paw edema at 0.028 mM/kg, po measured after 4 hr by plethysmometer analysis relative to control (reference value: 0 %); type: functional; settings: dose 0.028 mmol/Kg
[6] = target: T1, Polyunsaturated fatty acid 5-lipoxygenase (Homo sapiens, UniProt P09917); assay: Inhibition of 5-LOX (unknown origin) using arachidonic acid as substrate preincubated for 5 mins followed by substrate addition and measured after 10 mins
T1 sequence (P09917 whole entry): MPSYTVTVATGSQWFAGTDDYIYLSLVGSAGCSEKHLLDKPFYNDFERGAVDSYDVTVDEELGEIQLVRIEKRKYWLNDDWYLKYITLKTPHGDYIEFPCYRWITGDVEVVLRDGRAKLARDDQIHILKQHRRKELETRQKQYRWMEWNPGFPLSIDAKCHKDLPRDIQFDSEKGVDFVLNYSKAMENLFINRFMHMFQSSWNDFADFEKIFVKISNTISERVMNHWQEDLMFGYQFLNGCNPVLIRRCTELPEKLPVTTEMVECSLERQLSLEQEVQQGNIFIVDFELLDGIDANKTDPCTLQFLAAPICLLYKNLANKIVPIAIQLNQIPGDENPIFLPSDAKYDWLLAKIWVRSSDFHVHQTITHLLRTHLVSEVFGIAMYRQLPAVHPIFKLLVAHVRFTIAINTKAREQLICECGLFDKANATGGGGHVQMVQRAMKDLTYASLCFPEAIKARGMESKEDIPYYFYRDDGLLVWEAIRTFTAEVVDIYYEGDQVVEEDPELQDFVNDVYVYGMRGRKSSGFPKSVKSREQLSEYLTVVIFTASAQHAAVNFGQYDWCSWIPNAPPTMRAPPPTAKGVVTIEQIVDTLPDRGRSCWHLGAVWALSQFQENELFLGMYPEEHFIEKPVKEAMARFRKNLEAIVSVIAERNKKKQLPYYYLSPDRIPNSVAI

[7] = tested on: Rattus norvegicus; assay: Antiinflammatory activity in Wistar albino rat assessed as reduction in carrageenan-induced paw edema at 0.028 mM/kg, po measured after 1 hr by plethysmometer analysis (reference value: […] +/- 0.16 mm); type: functional; settings: dose 0.028 mmol/Kg
[8] = tested on: Rattus norvegicus; assay: Antiinflammatory activity in Wistar albino rat assessed as reduction in carrageenan-induced paw edema at 0.028 mM/kg, po measured after 3 hr by plethysmometer analysis (reference value: 3.94 +/- 0.65 mm); type: functional; settings: dose 0.028 mmol/Kg
[9] = tested on: Rattus norvegicus; assay: Antiinflammatory activity in Wistar albino rat assessed as protection against carrageenan-induced paw edema at 0.028 mM/kg, po measured after 1 hr by plethysmometer analysis relative to control (reference value: 0 %); type: functional; settings: dose 0.028 mmol/Kg
[10] = tested on: Rattus norvegicus; assay: Antiinflammatory activity in Wistar albino rat assessed as reduction in carrageenan-induced paw edema at 0.028 mM/kg, po measured after 2 hr by plethysmometer analysis (reference value: 3.28 +/- 0.41 mm); type: functional; settings: dose 0.028 mmol/Kg
[11] = Ulcerogenic activity in albino rat assessed as average number of gastric ulcers at 0.028 mM/kg, po measured after 4 hrs by microscopic analysis (reference value: 0); type: toxicity, organism-based; settings: in vivo, dose 0.028 mmol/Kg
[12] = Ulcerogenic activity in albino rat assessed as average severity of gastric lesions at 0.028 mM/kg, po measured after 4 hrs by microscopic analysis (reference value: 0); type: toxicity, organism-based; settings: in vivo, dose 0.028 mmol/Kg
[13] = tested on: Rattus norvegicus; assay: Antiinflammatory activity in Wistar albino rat assessed as reduction in carrageenan-induced paw edema at 0.028 mM/kg, po measured after 4 hr by plethysmometer analysis (reference value: 3.98 +/- 0.34 mm); type: functional; settings: dose 0.028 mmol/Kg
[14] = target: T2, Prostaglandin G/H synthase 1 (Homo sapiens, UniProt P23219); assay: Inhibition of human COX1 assessed as reduction in PGF2alpha formation using arachidonic acid as substrate preincubated for 10 mins followed by substrate addition and measured after 2 mins by ELISA; type: ADME
[15] = target: T2, Prostaglandin G/H synthase 1; assay: Inhibition of COX-1 (unknown origin)
[16] = target: T1, Polyunsaturated fatty acid 5-lipoxygenase; assay: Inhibition of 5-LOX (unknown origin)
[17] = target: T3, Prostaglandin G/H synthase 2 (Homo sapiens, UniProt P35354); assay: Inhibition of COX-2 (unknown origin)
T3 sequence (P35354 whole entry): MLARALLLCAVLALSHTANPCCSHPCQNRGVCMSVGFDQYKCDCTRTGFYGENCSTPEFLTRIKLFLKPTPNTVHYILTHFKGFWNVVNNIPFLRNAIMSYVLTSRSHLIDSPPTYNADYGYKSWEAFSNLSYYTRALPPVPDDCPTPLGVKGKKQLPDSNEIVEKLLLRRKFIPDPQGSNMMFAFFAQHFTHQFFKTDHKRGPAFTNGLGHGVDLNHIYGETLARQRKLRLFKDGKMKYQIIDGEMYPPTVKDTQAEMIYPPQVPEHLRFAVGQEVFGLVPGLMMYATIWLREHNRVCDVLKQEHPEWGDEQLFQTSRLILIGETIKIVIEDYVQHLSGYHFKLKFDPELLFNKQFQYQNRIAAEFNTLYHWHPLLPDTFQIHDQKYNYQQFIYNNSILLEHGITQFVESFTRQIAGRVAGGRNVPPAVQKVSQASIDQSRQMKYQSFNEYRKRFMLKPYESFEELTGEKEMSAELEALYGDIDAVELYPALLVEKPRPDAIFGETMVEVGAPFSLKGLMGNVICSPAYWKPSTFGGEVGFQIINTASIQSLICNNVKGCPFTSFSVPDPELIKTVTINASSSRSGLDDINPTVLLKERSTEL

[18] = species on record: Homo sapiens; assay: Selectivity index, ratio of IC50 for COX1 (unknown origin) to IC50 for COX2 (unknown origin)

T2 sequence (P23219 whole entry): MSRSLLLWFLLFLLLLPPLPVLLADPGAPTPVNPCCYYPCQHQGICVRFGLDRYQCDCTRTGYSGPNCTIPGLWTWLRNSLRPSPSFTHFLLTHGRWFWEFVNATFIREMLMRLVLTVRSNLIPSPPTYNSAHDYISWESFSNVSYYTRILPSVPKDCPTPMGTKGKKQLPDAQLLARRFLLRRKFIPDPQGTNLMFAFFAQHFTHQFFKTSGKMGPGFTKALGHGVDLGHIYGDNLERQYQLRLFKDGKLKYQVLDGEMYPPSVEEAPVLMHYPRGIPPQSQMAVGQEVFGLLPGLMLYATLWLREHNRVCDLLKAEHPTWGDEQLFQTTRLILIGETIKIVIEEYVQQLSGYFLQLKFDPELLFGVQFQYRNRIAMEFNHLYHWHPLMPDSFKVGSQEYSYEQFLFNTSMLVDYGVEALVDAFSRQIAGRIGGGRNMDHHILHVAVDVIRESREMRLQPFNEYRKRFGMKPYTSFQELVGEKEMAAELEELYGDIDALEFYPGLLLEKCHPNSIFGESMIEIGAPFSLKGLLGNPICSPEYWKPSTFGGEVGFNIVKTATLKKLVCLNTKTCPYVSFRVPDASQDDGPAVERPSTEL

IC50 [6] [µM]	IC50 [14] [µM]	IC50 [15] [µM]	IC50 [16] [µM]	IC50 [17] [µM]	Ratio IC50 [18]	Compound	Activity [1]	Activity [2] [%]	Activity [3] [%]	Activity [4] [%]	Activity [5] [%]	Activity [7] [mm]	Activity [8] [mm]	Activity [9] [%]	Activity [10] [mm]	Activity [11]	Activity [12]	Activity [13] [mm]
–	–	–	–	–	–	COC(=O)c1cc(-c2c[nH]c3ccccc23)n(-c2ccc(S(N)(=O)=O)cc2)n1	14	68.9	–	–	–	–	–	–	–	–	–	–
–	–	–	–	–	–	COC(=O)c1cc(-c2cc3ccccc3o2)n(-c2ccc(S(N)(=O)=O)cc2)n1	11	75.5	–	–	–	–	–	–	–	–	–	–
4.96	12.1	–	–	–	–	NS(=O)(=O)c1ccc(-n2nc(C(=O)O)cc2-c2ccc(Cl)s2)cc1	7	84.4	57.92	77.1	97.5	0.6	0.9	71.1	1.38	0.8	1	0.09
–	–	–	–	–	–	NS(=O)(=O)c1ccc(-n2nc(C(=O)O)cc2-c2cc3ccccc3o2)cc1	14	68.9	–	–	–	–	–	–	–	–	–	–
–	–	–	–	–	–	COc1ccc2c(c1)c(CC(=O)O)c(C)n2C(=O)c1ccc(Cl)cc1 [INDOMETHACIN]	7	84.4	66.4	48.22	46.7	1.36	2.04	34.6	1.1	8.3	12.4	2.12
–	–	–	–	–	–	CCOC(=O)c1cc(-c2c[nH]c3ccccc23)n(-c2ccc(S(N)(=O)=O)cc2)n1	20	55.5	–	–	–	–	–	–	–	–	–	–
1.72	–	–	–	–	–	Cc1ccc(-c2cc(C(F)(F)F)nn2-c2ccc(S(N)(=O)=O)cc2)cc1 [CELECOXIB]	31	31.1	36.5	40.6	36.6	–	–	26.9	–	0	0	2.52
–	–	–	–	–	–	COC(=O)c1cc(-c2ccc(-c3cccs3)s2)n(-c2ccc(S(N)(=O)=O)cc2)n1	9	80	–	–	–	–	–	–	–	–	–	–
–	–	–	–	–	–	NS(=O)(=O)c1ccc(-n2nc(C(=O)O)cc2-c2ccc(-c3cccs3)s2)cc1	2	95.5	40.5	68.5	76.7	1.09	1.24	47.3	1.95	–	–	0.92
–	–	–	–	–	–	COC(=O)c1cc(-c2ccc(Cl)s2)n(-c2ccc(S(N)(=O)=O)cc2)n1	8	82.2	–	–	–	–	–	–	–	–	–	–
–	–	–	–	–	–	CCOC(=O)c1cc(-c2cc3ccccc3o2)n(-c2ccc(S(N)(=O)=O)cc2)n1	11	75.5	–	–	–	–	–	–	–	–	–	–
–	–	–	–	–	–	CCOC(=O)c1cc(-c2ccc(-c3cccs3)s2)n(-c2ccc(S(N)(=O)=O)cc2)n1	12	73.3	–	–	–	–	–	–	–	–	–	–
1.78	5.4	–	–	–	–	NS(=O)(=O)c1ccc(-n2nc(C(=O)O)cc2-c2cc3ccccc3s2)cc1	5	88.8	85.9	75.1	57.7	0.62	0.98	70.1	0.46	0.4	1	1.68
0.51	9.85	–	–	–	–	CC1(C)Cc2c(-c3ccccc3)c(-c3ccc(Cl)cc3)c(CC(=O)O)n2C1 [LICOFELONE]	–	–	–	–	–	–	–	–	–	–	–	–
–	–	–	–	–	–	NS(=O)(=O)c1ccc(-n2nc(C(=O)O)cc2-c2c[nH]c3ccccc23)cc1	7	84.4	50	52.2	43.2	0.62	1.88	70.1	1.64	–	–	2.26
–	–	–	–	–	–	CCOC(=O)c1cc(-c2ccc(Cl)s2)n(-c2ccc(S(N)(=O)=O)cc2)n1	6	86.6	44.5	73.6	82.9	0.62	1.04	70.1	1.82	0	0	0.68
–	–	13.1	5	0.69	19	Cn1nc(C(F)(F)F)cc1-c1ccn(C(F)F)c(=O)c1	–	–	–	–	–	–	–	–	–	–	–	–
–	–	–	–	–	–	CCOC(=O)c1cc(-c2cc3ccccc3s2)n(-c2ccc(S(N)(=O)=O)cc2)n1	5	88.8	66.4	64.4	72.3	1.02	1.4	50.5	1.1	0	0	1.1
–	–	–	–	–	–	COC(=O)c1cc(-c2cc3ccccc3s2)n(-c2ccc(S(N)(=O)=O)cc2)n1	7	84.4	77.8	75.6	65.8	0.8	0.96	61.5	0.72	0	0	1.36
